# According to article PMC2248166, “Quantitative peptide binding motifs for 19 human and mouse MHC class I molecules derived using positional scanning combinatorial peptide libraries” (Immunome Research, 2008):
# Where a SMILES comes first, the peptide text is derived from it.
# Target: HLA A*3201 (Homo sapiens, UniProt P04439, A270S/D101S/D185E/E176V/E277Q/F133L/G103R/G107R/G231S/H175R/I121M/I218V/I322F/K168Q/L105A/L300P/L318F/M331R/P208A/P217A/Q94H/R106L/R138Q/S129P/T104I/T323A/T345S/V100E/V321M/V358M)
# Assay: biochemical
# Type: binding
row,SMILES,IC50 [nM]
1,CC[C@H](C)[C@H](NC(=O)[C@H](Cc1ccc(O)cc1)NC(=O)[C@@H](NC(=O)[C@@H](NC(=O)[C@@H](NC(=O)[C@H](CCSC)NC(=O)[C@@H](NC(=O)[C@@H](N)CCCCN)[C@@H](C)O)[C@@H](C)O)[C@@H](C)O)C(C)C)C(=O)N[C@@H](CC(C)C)C(=O)O [3102.0466] (H-KTMTTVYIL-OH),14
2,CC[C@H](C)[C@H](NC(=O)[C@@H](NC(=O)[C@H](Cc1ccccc1)NC(=O)[C@H](CC(C)C)NC(=O)[C@H](Cc1ccccc1)NC(=O)[C@@H](NC(=O)[C@@H](NC(=O)[C@H](CC(C)C)NC(=O)[C@@H](N)CCCCN)[C@@H](C)CC)[C@@H](C)O)C(C)C)C(=O)O [3102.0370] (H-KLITFLFVI-OH),0.41
3,CC[C@H](C)[C@H](NC(=O)[C@@H](NC(=O)[C@H](CC(N)=O)NC(=O)[C@H](CC(N)=O)NC(=O)[C@H](Cc1ccc(O)cc1)NC(=O)[C@H](CC(C)C)NC(=O)[C@@H](NC(=O)[C@@H](NC(=O)[C@@H](N)Cc1c[nH]cn1)[C@@H](C)O)[C@@H](C)CC)[C@@H](C)O)C(=O)O [3102.0385] (H-HTILYNNTI-OH),1.9
4,CC[C@H](C)[C@H](NC(=O)[C@@H](NC(=O)[C@@H](N)CO)[C@@H](C)CC)C(=O)N[C@@H](CC(N)=O)C(=O)N[C@@H](CO)C(=O)N[C@@H](CC(N)=O)C(=O)N[C@H](C(=O)N[C@H](C(=O)N[C@@H](Cc1c[nH]c2ccccc12)C(=O)O)[C@@H](C)O)C(C)C [3102.0419] (H-SIINSNVTW-OH),11
5,CC[C@H](C)[C@H](NC(=O)[C@@H](NC(=O)[C@H](CC(N)=O)NC(=O)[C@@H](NC(=O)[C@@H](NC(=O)[C@H](C)NC(=O)[C@H](Cc1c[nH]c2ccccc12)NC(=O)[C@H](CC(C)C)NC(=O)[C@@H](N)[C@@H](C)O)[C@@H](C)CC)[C@@H](C)CC)[C@@H](C)O)C(=O)O [3102.0403] (H-TLWAIINTI-OH),1.5
6,CC[C@H](C)[C@H](NC(=O)[C@@H](NC(=O)[C@@H](NC(=O)[C@H](CC(=O)O)NC(=O)[C@@H](NC(=O)[C@H](Cc1ccccc1)NC(=O)[C@@H](NC(=O)[C@@H](NC(=O)[C@@H](N)CO)[C@@H](C)CC)C(C)C)C(C)C)C(C)C)[C@@H](C)CC)C(=O)O [3102.0355] (H-SIVFVDVII-OH),59
7,CC[C@H](C)[C@H](NC(=O)[C@H](CO)NC(=O)[C@H](CC(C)C)NC(=O)[C@@H](NC(=O)[C@H](CO)NC(=O)[C@H](C)NC(=O)[C@H](CC(C)C)NC(=O)[C@@H](NC(=O)[C@@H](N)CCC(N)=O)[C@@H](C)CC)[C@@H](C)CC)C(=O)O [3102.0474] (H-QILASILSI-OH),22
8,CC[C@H](C)[C@H](NC(=O)[C@@H](NC(=O)[C@H](CO)NC(=O)[C@H](CC(C)C)NC(=O)[C@@H](NC(=O)[C@H](CCSC)NC(=O)[C@H](CCSC)NC(=O)[C@@H](NC(=O)[C@H](C)N)[C@@H](C)CC)[C@@H](C)CC)[C@@H](C)O)C(=O)O [3102.0350] (H-AIMMILSTI-OH),2.5
9,CC[C@H](C)[C@H](NC(=O)[C@H](CO)NC(=O)[C@@H](NC(=O)[C@H](CCCCN)NC(=O)CNC(=O)[C@H](Cc1ccccc1)NC(=O)[C@H](Cc1ccccc1)NC(=O)[C@@H](NC(=O)[C@@H](N)CCCNC(=N)N)[C@@H](C)CC)[C@@H](C)O)C(=O)O [3102.0433] (H-RIFFGKTSI-OH),1.3
10,CSCC[C@H](NC(=O)[C@@H](N)CCCCN)C(=O)N[C@@H](CC(=O)O)C(=O)N[C@@H](CC(N)=O)C(=O)NCC(=O)N[C@H](C(=O)N[C@@H](CC(C)C)C(=O)N[C@@H](CCC(=O)O)C(=O)N[C@@H](Cc1ccccc1)C(=O)O)[C@@H](C)O [3102.0365] (H-KMDNGTLEF-OH),0.92
11,CC[C@H](C)[C@H](NC(=O)[C@@H](N)Cc1c[nH]cn1)C(=O)N[C@@H](Cc1ccc(O)cc1)C(=O)N[C@@H](Cc1ccccc1)C(=O)N[C@H](C(=O)N[C@@H](CO)C(=O)N[C@@H](CC(C)C)C(=O)N[C@@H](CC(C)C)C(=O)N[C@@H](CC(C)C)C(=O)O)C(C)C [3102.0380] (H-HIYFVSLLL-OH),15
12,CC[C@H](C)[C@H](NC(=O)[C@@H](N)C(C)C)C(=O)N[C@@H](CC(N)=O)C(=O)N[C@@H](Cc1ccc(O)cc1)C(=O)N[C@@H](Cc1ccccc1)C(=O)N[C@@H](CC(N)=O)C(=O)N[C@@H](CCCNC(=N)N)C(=O)N[C@@H](CCSC)C(=O)N[C@@H](Cc1ccccc1)C(=O)O [3102.0412] (H-VINYFNRMF-OH),4.3
13,CC[C@H](C)[C@H](NC(=O)[C@@H](NC(=O)[C@H](CC(C)C)NC(=O)[C@H](CO)NC(=O)[C@H](C)NC(=O)CNC(=O)[C@H](CC(N)=O)NC(=O)[C@H](CO)NC(=O)[C@@H](N)CC(C)C)[C@@H](C)O)C(=O)O [3102.0383] (H-LSNGASLTI-OH),74
14,CC[C@H](C)[C@H](NC(=O)[C@@H](N)CCCCN)C(=O)N[C@@H](CC(=O)O)C(=O)N[C@@H](CC(N)=O)C(=O)N[C@@H](Cc1ccc(O)cc1)C(=O)N[C@H](C(=O)N[C@H](C(=O)N[C@@H](CCCCN)C(=O)N[C@@H](Cc1ccccc1)C(=O)O)C(C)C)C(C)C [3102.0414] (H-KIDNYVVKF-OH),19
15,CC[C@H](C)[C@H](NC(=O)[C@@H](NC(=O)[C@@H](N)CCCCN)[C@@H](C)O)C(=O)N[C@@H](Cc1ccc(O)cc1)C(=O)N[C@@H](CC(C)C)C(=O)N[C@@H](CC(C)C)C(=O)N[C@@H](CO)C(=O)N[C@@H](CC(C)C)C(=O)N[C@@H](Cc1ccccc1)C(=O)O [3102.0490] (H-KTIYLLSLF-OH),10
16,CC[C@H](C)[C@H](NC(=O)[C@H](CO)NC(=O)[C@@H](N)CCCCN)C(=O)N[C@@H](CC(N)=O)C(=O)N[C@H](C(=O)N[C@@H](CCC(=O)O)C(=O)N[C@@H](Cc1ccc(O)cc1)C(=O)N[C@@H](CCCNC(=N)N)C(=O)N[C@@H](Cc1ccccc1)C(=O)O)C(C)C [3102.0364] (H-KSINVEYRF-OH),1.5
17,CC[C@H](C)[C@H](NC(=O)[C@@H](N)CCCCN)C(=O)N[C@@H](CC(N)=O)C(=O)N[C@@H](CCSC)C(=O)N[C@@H](CCC(N)=O)C(=O)N[C@H](C(=O)N[C@@H](CC(C)C)C(=O)N[C@@H](CC(C)C)C(=O)N[C@@H](Cc1ccccc1)C(=O)O)[C@@H](C)O [3102.0488] (H-KINMQTLLF-OH),10
18,CC[C@H](C)[C@H](NC(=O)[C@H](CO)NC(=O)[C@H](C)NC(=O)[C@H](Cc1ccc(O)cc1)NC(=O)[C@@H](NC(=O)[C@H](CCC(=O)O)NC(=O)[C@H](CC(N)=O)NC(=O)[C@@H](NC(=O)[C@@H](N)CC(C)C)[C@@H](C)O)[C@@H](C)CC)C(=O)O [3102.0445] (H-LTNEIYASI-OH),13
19,CC[C@H](C)[C@H](NC(=O)CNC(=O)[C@@H](NC(=O)[C@@H](NC(=O)[C@H](CC(C)C)NC(=O)CNC(=O)[C@H](CS)NC(=O)[C@@H](NC(=O)[C@@H](N)C(C)C)[C@@H](C)CC)[C@@H](C)CC)C(C)C)C(=O)O [3102.0356] (H-VICGLIVGI-OH),26
20,CC(C)C[C@H](NC(=O)[C@@H](NC(=O)[C@@H](NC(=O)[C@@H](NC(=O)[C@@H](NC(=O)[C@@H](NC(=O)[C@H](CC(C)C)NC(=O)[C@@H](NC(=O)[C@@H](N)CCCCN)[C@@H](C)O)[C@@H](C)O)[C@@H](C)O)[C@@H](C)O)C(C)C)C(C)C)C(=O)O [3102.0381] (H-KTLTTTVVL-OH),9.4
21,CC(C)C[C@H](NC(=O)[C@H](CO)NC(=O)[C@H](CC(N)=O)NC(=O)[C@H](CCCNC(=N)N)NC(=O)[C@H](CC(C)C)NC(=O)CNC(=O)[C@H](Cc1ccc(O)cc1)NC(=O)[C@@H](NC(=O)[C@@H](N)CCCNC(=N)N)[C@@H](C)O)C(=O)O [3102.0438] (H-RTYGLRNSL-OH),0.63
22,CC[C@H](C)[C@H](N)C(=O)N[C@@H](CC(C)C)C(=O)N[C@H](C(=O)N[C@H](C(=O)N[C@@H](Cc1ccccc1)C(=O)N[C@H](C(=O)N[C@H](C(=O)N[C@@H](C)C(=O)N[C@H](C(=O)O)[C@@H](C)CC)C(C)C)[C@@H](C)O)[C@@H](C)CC)C(C)C [3102.0411] (H-ILVIFTVAI-OH),15
23,CC[C@H](C)[C@H](NC(=O)[C@@H](NC(=O)[C@@H](NC(=O)[C@H](CCCCN)NC(=O)[C@H](CC(N)=O)NC(=O)[C@H](CC(N)=O)NC(=O)[C@H](C)NC(=O)[C@H](CC(C)C)NC(=O)[C@@H](N)CCCNC(=N)N)C(C)C)[C@@H](C)O)C(=O)O [3102.0434] (H-RLANNKVTI-OH),1.5
24,CC[C@H](C)[C@H](NC(=O)[C@H](Cc1ccccc1)NC(=O)[C@@H](NC(=O)[C@@H](NC(=O)[C@@H](N)CO)[C@@H](C)CC)[C@@H](C)CC)C(=O)N[C@@H](CC(N)=O)C(=O)N[C@@H](Cc1ccc(O)cc1)C(=O)N[C@H](C(=O)N[C@@H](CCSC)C(=O)O)[C@@H](C)O [3102.0303] (H-SIIFINYTM-OH),6.5
25,CC(C)C[C@H](NC(=O)[C@H](Cc1ccccc1)NC(=O)[C@H](CO)NC(=O)[C@H](CC(C)C)NC(=O)[C@@H](N)CCCCN)C(=O)N[C@@H](CO)C(=O)N[C@@H](CCCNC(=N)N)C(=O)N[C@H](C(=O)N[C@@H](Cc1ccccc1)C(=O)O)C(C)C [3102.0332] (H-KLSFLSRVF-OH),2.2
26,CC[C@H](C)[C@H](NC(=O)[C@@H](NC(=O)[C@H](CC(C)C)NC(=O)[C@H](C)NC(=O)[C@@H](NC(=O)[C@@H](NC(=O)[C@@H](NC(=O)[C@@H](NC(=O)[C@@H](N)Cc1c[nH]cn1)[C@@H](C)CC)[C@@H](C)CC)[C@@H](C)CC)C(C)C)[C@@H](C)O)C(=O)O [3102.0368] (H-HIIIVALTI-OH),79
27,CC[C@H](C)[C@H](NC(=O)[C@@H](NC(=O)[C@H](CC(C)C)NC(=O)[C@@H](NC(=O)[C@H](CCCNC(=N)N)NC(=O)[C@H](CC(N)=O)NC(=O)[C@@H](NC(=O)[C@@H](NC(=O)CN)[C@@H](C)O)[C@@H](C)CC)[C@@H](C)CC)C(C)C)C(=O)O [3102.0337] (H-GTINRILVI-OH),15
28,CC[C@H](C)[C@H](NC(=O)[C@H](CO)NC(=O)[C@H](CCCCN)NC(=O)[C@H](Cc1ccccc1)NC(=O)[C@H](CC(C)C)NC(=O)[C@@H](NC(=O)[C@@H](N)CCSC)[C@@H](C)O)C(=O)N[C@@H](CC(C)C)C(=O)N[C@@H](Cc1ccccc1)C(=O)O [3102.0443] (H-MTLFKSILF-OH),11
